Measured values from patent US20150335535A1, “DENTAL ADHESIVE” (DENTSPLY INTERNATIONAL INC., priority 2008, published 2015).
Each block holds one compound with its values, some of them ahead of it.

Assay: Thermal stability of test formulation on storage at 60° C. until thermal polymerization
Type: physicochemical
Conditions: for sufficient thermal stability: inhibitor in test formulation; for thermal stability of formulation FBE-05.44.01: all columns dark shaded
Protocol: A series of test formulations containing different thermal polymerization inhibitors was prepared in order to illustrate the surprising thermal stability of a dental adhesive composition according to the present invention. Test formulations containing different inhibitors or inhibitor concentrations were stored in Prime&Bond NT bottles ([…]) at 60° C. until thermal polymerization. The bottles were daily examined by shaking the bottle, whereby the acoustical test turned out to be rather sensitive, and by taking a sample with a pipette. When polymerization seemed to have occurred or after a certain minimum storage time (20 days) the bottles were sliced open and the solution were examined visually. According to the results of the above described Arrhenius investigation at least a thermal stability of about 11 days at 60° C. is necessary so that the dental adhesive composition may be stored at room temperature. The Test Formulation containing different inhibitors in different amounts, was investigated regarding its thermal stability by storing these formulations at 60° C. The samples were daily examined. In case of polymerization a gel or a solid, polymerized body was observed. The dark shaded columns represent formulations with inhibitors, respectively inhibitor concentrations, which were polymerized after the depicted time at 60° C. The light shaded columns represent formulations, which were not polymerized until the depicted time. Usually after 20 days the investigation was terminated.

- visual examination after slicing open the bottles (0.013 mol % inhibitor, after 20 days at 60° C.): polymerization was found
- visual examination after slicing open the bottles (after 14 days and after 20 days at 60° C., FBE-05.44.01): No hints of a polymerization were found
Compound: CC(C)(C)c1cc(O)ccc1O [TBHQ, tert-Butylhydroquinone]

Compound: COc1ccc(O)cc1 [HQME, hydroquinone monomethylether]
- visual examination after slicing open the bottle (0.49 mol % inhibitor in FBE-05.44.01, storage at 60° C.): small pieces of gel were found at the bottom
- visual examination after slicing open the bottle (0.697 mol % inhibitor in FBE-05.44.01, storage at 60° C.): small pieces of gel were found at the bottom
- sufficient thermal stability (storage at 60° C.): failed to provide a sufficient thermal stability

- stabilization effect (inhibitor 0.15 mol % in test formulation, storage at 60° C.): some stabilization effect
Compound: Oc1ccc(O)cc1 [HQ, hydroquinone]

Compound: CC(C)(C)c1ccc(O)c(O)c1 [TBC]
- visual examination after slicing open the bottle (0.193 mol % inhibitor, storage at 60° C.): some pieces of gel were found at the bottom

- thermal stability of formulation FBE-05.44.01 (storage at 60° C.): polymerized after the recorded time
Compound: CC(C)(c1ccc(O)cc1)c1ccc(O)cc1 [Bisphenol A]

Compound: Cc1cc(C(C)(C)C)c(O)c(C(C)(C)C)c1 [BHT, 2,6-di-tert.-butyl-p-cresol]
- sufficient thermal stability (storage at 60° C.): failed to provide a sufficient thermal stability

Compound: COc1ccc(O)c(C(C)(C)C)c1 [tert.-Butylhydroxyanisole, tert.-Butylhydroxyanisol]
- visual examination after slicing open the bottles (0.047 mol % inhibitor, after 14 days at 60° C.): some pieces of gel
- visual examination after slicing open the bottles (0.047 mol % inhibitor, after 20 days at 60° C.): some small pieces of gel
- visual examination after slicing open the bottles (0.096 mol % inhibitor, after 20 days at 60° C.): No indication of polymerization
- visual examination after slicing open the bottles (0.147 mol % inhibitor, after 20 days at 60° C.): No indication of polymerization

- thermal stability of formulation FBE-05.44.01 (storage at 60° C.): polymerized after the recorded time
Compound: CCCOC(=O)c1cc(O)c(O)c(O)c1 [PG, Propyl gallate]
